Measurements taken from publication PMC3496014 (Journal of structural biology, 2012).
Where two headings read alike, the source gives them in different places.

System: PfAtg8 WT
Type: binding, P. falciparum
Details: for WTRU/NOISE (response divided by overall noise, WT): pH 8
[1] = ratio of WT to K19E/K47E normalized response, hit threshold at least 1.5

Compound	WTRU/NOISE (response divided by overall noise, WT)	(WTRU/NOISE)/(MutRU/NOISE) [1]	(WTRU/NOISE)/(MutRU/NOISE)
Oc1ccc(O)c(O)c1 [Fragment 408, 1,2,4-benzenetriol]	5.33	3.56	–
O=C1CC(=O)c2ccccc21 [Fragment 792, 1,3-indandione]	2.38	2.15	–
O=c1ccc2cc(O)c(O)cc2o1 [Fragment 268, 6,7-dihydroxycoumarin]	1.79	–	3.73
O=[N+]([O-])c1ccc(O)c(O)c1 [Fragment 537, 4-nitrocatechol]	2.39	1.90	–
Oc1cccc(O)c1O [Fragment 410, 1,2,3-benzenetriol]	22.79	6.19	–
O=[N+]([O-])c1ccc(Cl)c2nonc12 [Fragment 470, 4-chloro-7-nitrobenzofurazan]	–	1.52	–
